{"source": "patent US20090030079A1", "about": "(priority 2007, published 2009)", "key": {"[1]": {"conditions": "Pb^2+, cited from earlier work"}, "[2]": {"conditions": "Zn^2+, cited from earlier work"}, "[3]": {"test": "Decorporation of Polonium-210: tissue distribution of IV administered Po-210 in rats", "format": "in vivo, Wistar-Han rats", "conditions": "for % Reduction of Po-210 vs Po-210 Control / effect on polonium-210 level (in words): oral 15 mg/kg x 5, day 6; for Po-210 dpm/gm for animal group: single IV Po-210 approx. 90 kBq, oral 15 mg/kg every 24 h x 5, sacrifice day 6", "experimental": "The digested sample was diluted with distilled water to reduce the nitric acid to approximately 1 M. An aliquot of the resulting solution was added to Ultima Gold XR liquid scintillation cocktail (Packard BioScience, Meriden, Conn.), counted and corrected for possible quenching."}, "[4]": {"conditions": "cited from earlier work"}, "[5]": {"conditions": "In^3+, cited from earlier work"}, "[6]": {"test": "Decorporation of Cobalt-60: tissue distribution and excretion of IV administered Co-60 in rats", "format": "in vivo, Male Wistar-Han rats", "conditions": "for Co-60 Dose % for animal group: single IV Co-60 14 KBq, 48 hr post exposure; for effect on total Co-60 excretion (urine and feces): monitored 2 days, not statistically significant, 15 mg/kg", "experimental": "Materials. Chloride stock solution of ^60Co as ^60CoCl2 was diluted with sterile saline solution to adjust to the desired activity and used for the IV dosing. Activity of the dosing solution was determined using automated Wallac 1480 (Perkin Elmer) gamma counter equipped with 3 inch NaI(TI) crystal shielded detector.\nAnimals. Male Wistar-Han rats were obtained from Charles River Breeding Laboratory (Raleigh, N.C.) with indwelling jugular vein cannula. Animals were provided food and water ad libitum during acclimatization. The light cycle was 12 hour light/12 hour dark and relative humidity and temperature maintained at 50±15% and 22±2° C. All animal use protocols were approved by the Institutional Animal Care and Use Committee at Battelle, Pacific Northwest Division and studies were performed according to the “Guide for the Care and Use of Laboratory Animals” (National Research Council, Washington D.C., 1996).\nDosing regimen. Animals were restricted from food overnight prior to exposure. At the time of exposure, groups of animals (N=6) received a single intravenous (IV) injection (0.2 mL) of ^60Co solution at 14.0±0.6 KBq dose in sterile saline via an indwelling jugular vein cannula. […] The actual doses delivered were calculated based on the individual animal weights (Table 3). One group of animals was dosed with the radionuclide without subsequent administration of the chelation material to serve as control group. Following dosing, animals were placed in Nalgene metabolism cages for separate collection of urine and feces. […] Animals were sacrificed 48 hr post radionuclide administration. At sacrifice, blood and tissues (liver, kidney, spleen, gastrointestinal tract, muscle, bone, bone marrow, and lung) were collected, weighed and counted for radioactivity using a Wallac 1480 gamma counter. Gamma count data were normalized to percent administered dose after adjusting the grams of tissue collected for total organ mass.\nData statistical evaluation. Each data group was subjected to Dixon's Q-test to evaluate for potential outliers. In this test Q parameter of 0.625 (N=6, 95% confidence level, a=0.05) was used (1). For each tissue, a preliminary F-test (95% confidence level, a=0.05) for the equality of variances of the control and each treatment group was performed using Excel software. If the calculated probability p value was less than 0.05, the variances were assumed to be not equal. Based on this information, “T-test: Two-Sample Assuming Unequal Variances” or “T-test: Two-Sample Assuming Equal Variances” (95% confidence level, a=0.05) was performed using Excel software. The calculated p-value less than 0.05 provides evidence to reject the null hypothesis of equal means. The obtained statistical parameters listed in Table 4 served as guidelines for data evaluation (Table 5; calculation assumes that total skeleton, blood, or muscle is approximately 7.3, 6, or 40% of the body weight of the animal, respectively; Co-60 in skeleton is calculated based on the femur data—R. P. Brown, M. D. Delp, S. L. Undstedt, L. R. Rhomberg, and R. P. Beliles, Physiological Parameter Values for Physiologically Based Pharmacokinetic Models. Toxicology and Industrial Health, 1997, 13(4): 407-484)."}, "[7]": {"conditions": "Co^2+; cited from earlier work"}, "[8]": {"conditions": "Ag^1+, cited from earlier work"}, "[9]": {"conditions": "Cu^1+, cited from earlier work"}, "[10]": {"conditions": "Ni^2+, cited from earlier work"}, "[11]": {"conditions": "Hg^2+, cited from earlier work"}, "[12]": {"conditions": "Cd^2+, cited from earlier work"}, "[13]": {"conditions": "Tl^1+; cited from earlier work"}, "[14]": {"conditions": "single oral dose 15 mg/kg, day 1 post exposure"}}, "note": "Read-outs that look alike come from different tables or passages of the source."}
{"smiles": "CC(C)(S)[C@@H](N)C(=O)O", "note": "[Penicillamine, 3-mercapto-D-valine]", "values": [{"measurement": "binding stability constant (log K)", "setting": "[1]", "result": 12.3}, {"measurement": "binding stability constant (log K)", "setting": "[1]; listed as penicillamine", "result": "fairly strong"}, {"measurement": "binding stability constant (log K)", "setting": "[2]", "result": 9.71}, {"measurement": "binding stability constant (log K)", "setting": "[2]; listed as penicillamine", "result": "fairly strong"}, {"measurement": "% Reduction of Po-210 vs Po-210 Control", "setting": "[3]; Blood", "result": 18, "unit": "%"}, {"measurement": "Po-210 dpm/gm for animal group", "setting": "[3]; Blood", "result": "28482 ± 6375", "unit": "dpm/gm"}, {"measurement": "Po-210 dpm/gm for animal group", "setting": "[3]; Femur", "result": "22969 ± 4055", "unit": "dpm/gm"}, {"measurement": "% Reduction of Po-210 vs Po-210 Control", "setting": "[3]; Kidney", "result": "−15", "unit": "%"}, {"measurement": "Po-210 dpm/gm for animal group", "setting": "[3]; Kidney", "result": "216172 ± 31993", "unit": "dpm/gm"}, {"measurement": "% Reduction of Po-210 vs Po-210 Control", "setting": "[3]; Liver", "result": 12, "unit": "%"}, {"measurement": "Po-210 dpm/gm for animal group", "setting": "[3]; Liver", "result": "124648 ± 47423", "unit": "dpm/gm"}, {"measurement": "% Reduction of Po-210 vs Po-210 Control", "setting": "[3]; Lung", "result": 20, "unit": "%"}, {"measurement": "effect on polonium-210 level (in words)", "setting": "[3]; Lung", "result": "reduced"}, {"measurement": "Po-210 dpm/gm for animal group", "setting": "[3]; Lung", "result": "67342 ± 7895", "unit": "dpm/gm"}, {"measurement": "Po-210 dpm/gm for animal group", "setting": "[3]; Spleen", "result": "236736 ± 35488", "unit": "dpm/gm"}, {"measurement": "% Reduction of Po-210 vs Po-210 Control", "setting": "[3]; femur", "result": 13, "unit": "%"}, {"measurement": "effect on polonium-210 level (in words)", "setting": "[3]; femur", "result": "reduced"}, {"measurement": "% Reduction of Po-210 vs Po-210 Control", "setting": "[3]; spleen", "result": 44, "unit": "%"}, {"measurement": "effect on polonium-210 level (in words)", "setting": "[3]; spleen", "result": "reduced"}, {"measurement": "solubility", "setting": "[4]; in acetone", "result": "insoluble"}, {"measurement": "solubility", "setting": "[4]; in alcohol", "result": "slightly soluble"}, {"measurement": "solubility", "setting": "[4]; in benzene", "result": "insoluble"}, {"measurement": "solubility", "setting": "[4]; in carbon tetrachloride", "result": "insoluble"}, {"measurement": "solubility", "setting": "[4]; in ether", "result": "insoluble"}, {"measurement": "solubility", "setting": "[4]; in water", "result": "freely soluble"}, {"measurement": "binding stability constant (log K)", "setting": "[5]", "result": 15.33}, {"measurement": "binding stability constant (log K)", "setting": "[5]; listed as penicillamine", "result": "very strongly"}, {"measurement": "Co-60 Dose % for animal group", "setting": "[6]; Blood, single oral dose 15 mg/kg", "result": "0.089 ± 0.014", "unit": "%"}, {"measurement": "% Reduction of Co-60 vs Co-60 Control", "setting": "[6]; Blood, single oral dose 15 mg/kg, 48 hr", "result": 0, "unit": "%"}, {"measurement": "Co-60 Dose % for animal group", "setting": "[6]; Bone Marrow, single oral dose 15 mg/kg", "result": "Below detection"}, {"measurement": "Co-60 Dose % for animal group", "setting": "[6]; Intestine, single oral dose 15 mg/kg", "result": "0.94 ± 0.25", "unit": "%"}, {"measurement": "% Reduction of Co-60 vs Co-60 Control", "setting": "[6]; Intestine, single oral dose 15 mg/kg, 48 hr", "result": 47, "unit": "%"}, {"measurement": "Co-60 Dose % for animal group", "setting": "[6]; Kidney, single oral dose 15 mg/kg", "result": "0.31 ± 0.07", "unit": "%"}, {"measurement": "% Reduction of Co-60 vs Co-60 Control", "setting": "[6]; Kidney, single oral dose 15 mg/kg, 48 hr", "result": 56, "unit": "%"}, {"measurement": "Co-60 Dose % for animal group", "setting": "[6]; Liver, single oral dose 15 mg/kg", "result": "0.99 ± 0.25", "unit": "%"}, {"measurement": "% Reduction of Co-60 vs Co-60 Control", "setting": "[6]; Liver, single oral dose 15 mg/kg, 48 hr", "result": 51, "unit": "%"}, {"measurement": "Co-60 Dose % for animal group", "setting": "[6]; Lung, single oral dose 15 mg/kg", "result": "0.16 ± 0.07", "unit": "%"}, {"measurement": "% Reduction of Co-60 vs Co-60 Control", "setting": "[6]; Lung, single oral dose 15 mg/kg, 48 hr", "result": 0, "unit": "%"}, {"measurement": "Co-60 Dose % for animal group", "setting": "[6]; Muscle, single oral dose 15 mg/kg", "result": "0.63 ± 0.18", "unit": "%"}, {"measurement": "% Reduction of Co-60 vs Co-60 Control", "setting": "[6]; Muscle, single oral dose 15 mg/kg, 48 hr", "result": 39, "unit": "%"}, {"measurement": "Co-60 Dose % for animal group", "setting": "[6]; Spleen, single oral dose 15 mg/kg", "result": "0.056 ± 0.007", "unit": "%"}, {"measurement": "% Reduction of Co-60 vs Co-60 Control", "setting": "[6]; Spleen, single oral dose 15 mg/kg, 48 hr", "result": 0, "unit": "%"}, {"measurement": "Co-60 Dose % for animal group", "setting": "[6]; Stomach, single oral dose 15 mg/kg", "result": "0.041 ± 0.014", "unit": "%"}, {"measurement": "% Reduction of Co-60 vs Co-60 Control", "setting": "[6]; Stomach, single oral dose 15 mg/kg, 48 hr", "result": 45, "unit": "%"}, {"measurement": "Co-60 Dose % for animal group", "setting": "[6]; Total Skeleton (from femur data), single oral dose 15 mg/kg", "result": "0.32 ± 0.17", "unit": "%"}, {"measurement": "% Reduction of Co-60 vs Co-60 Control", "setting": "[6]; Total Skeleton, single oral dose 15 mg/kg, 48 hr", "result": 49, "unit": "%"}, {"measurement": "effect on blood levels of Co-60", "setting": "[6]; single oral dose 15 mg/kg, 48 hr", "result": "slightly decreased"}, {"measurement": "effect on urinary elimination of Co-60", "setting": "[6]; [14]", "result": "did not change"}, {"measurement": "increase of fecal elimination of Co-60", "setting": "[6]; [14]", "result": "about 3%"}, {"measurement": "effect on total Co-60 excretion (urine and feces)", "setting": "[6]; single oral dose 15 mg/kg", "result": "slightly increased"}, {"measurement": "effect on total Co-60 excretion (urine and feces)", "setting": "[6]; single oral dose 15 mg/kg, listed as penicillamine", "result": "appeared to accelerate"}, {"measurement": "reduction in the fraction of administered dose in the skeleton (based on femur data), liver and kidney", "setting": "[6]; single oral dose, Co-60", "result": "51-56%"}, {"measurement": "binding stability constant (log K)", "setting": "[7]", "result": 8.98}, {"measurement": "binding stability constant (log K)", "setting": "[8]", "result": 12.4}, {"measurement": "binding stability constant (log K)", "setting": "[8]; listed as penicillamine", "result": "fairly strong"}, {"measurement": "binding stability constant (log K)", "setting": "[9]", "result": "18.18 (Cu^1+)"}, {"measurement": "binding stability constant (log K)", "setting": "[9]; listed as penicillamine", "result": "very strongly"}, {"measurement": "binding stability constant (log K)", "setting": "[10]", "result": 10.70}, {"measurement": "binding stability constant (log K)", "setting": "[10]; listed as penicillamine", "result": "fairly strong"}, {"measurement": "binding stability constant (log K)", "setting": "[11]", "result": 16.3}, {"measurement": "binding stability constant (log K)", "setting": "[11]; listed as penicillamine", "result": "very strongly"}, {"measurement": "binding stability constant (log K)", "setting": "[12]", "result": 11.55}, {"measurement": "binding stability constant (log K)", "setting": "[12]; listed as penicillamine", "result": "fairly strong"}, {"measurement": "binding stability constant (log K)", "setting": "[13]", "result": 3.58}]}
